# Measurements published in ChEMBL document CHEMBL1201862, “PubChem BioAssay data set” (2004).
#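 Dose response: 5 concentrations. Exposure: 48 h. Format: 96-well plates. Endpoint: linear interpolation; highest concentration if not reached. GI50 is the concentration that inhibits growth by half.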 Calls of active or inactive are those of the source. Rule as the data show it: active = GI50 up to about 1.1 µM and inactive = higher.
# How the values were obtained:
# Experiment in all cases: DTP human tumour cell line panel, 48 h
# TK-10 = tested on: TK-10
# DMS-114 = tested on: DMS-114
# SF-539 = tested on: SF-539
# SF-268 = tested on: SF-268
# UACC-257 = tested on: UACC-257
# SK-MEL-2 = tested on: SK-MEL-2
# NCI-H522 = tested on: NCI-H522
# RXF 631 = tested on: RXF 631
# SF-295 = tested on: SF-295
# HOP-92 = tested on: HOP-92
# LXFL 529 = tested on: LXFL 529
# M14 = tested on: M14
# OVCAR-4 = tested on: OVCAR-4
# OVCAR-5 = tested on: OVCAR-5
# CCRF-CEM = tested on: CCRF-CEM
# NCI-H460 = tested on: NCI-H460
# COLO 205 = tested on: COLO 205
# 786-0 = tested on: 786-0
# ACHN = tested on: ACHN
# RXF 393 = tested on: RXF 393
# HOP-18 = tested on: HOP-18
# SN12C = tested on: SN12C
# OVCAR-3 = tested on: OVCAR-3
# KM-20L2 = tested on: KM-20L2
# LOX IMVI = tested on: LOX IMVI
# HCT-116 = tested on: HCT-116
# A549 = tested on: A549
# EKVX = tested on: EKVX
# DMS-273 = tested on: DMS-273
# SNB-75 = tested on: SNB-75
# U-251 = tested on: U-251
# KM12 = tested on: KM12
# HT-29 = tested on: HT-29
# OVCAR-8 = tested on: OVCAR-8
# UO-31 = tested on: UO-31
# UACC-62 = tested on: UACC-62
# IGROV-1 = tested on: IGROV-1
# SK-OV-3 = tested on: SK-OV-3
# NCI-H226 = tested on: NCI-H226
# HCT-15 = tested on: HCT-15
# HOP-62 = tested on: HOP-62
# M19-MEL = tested on: M19-MEL
# SK-MEL-5 = tested on: SK-MEL-5
# SR = tested on: SR
# NCI-H23 = tested on: NCI-H23
# SW-620 = tested on: SW-620
# A498 = tested on: A498
# SNB-78 = tested on: SNB-78
# Malme-3M = tested on: Malme-3M
# HCC 2998 = tested on: HCC 2998
# SK-MEL-28 = tested on: SK-MEL-28
# MOLT-4 = tested on: MOLT-4
# SNB-19 = tested on: SNB-19
# CAKI-1 = tested on: CAKI-1
# RPMI-8226 = tested on: RPMI-8226
# HL-60 = tested on: HL-60
# K562 = tested on: K562
# DLD-1 = tested on: DLD-1
# XF498 = tested on: XF498
smiles,measurement,setting,value
Cc1cccc(C)c1NC(=O)C(=O)Nn1c(NN)nc2ccccc2c1=O,GI50,TK-10,> 100 µM (inactive)
same,GI50,DMS-114,> 100 µM (inactive)
same,GI50,SF-539,> 100 µM (inactive)
same,GI50,SF-268,> 100 µM (inactive)
same,GI50,UACC-257,> 100 µM (inactive)
same,GI50,SK-MEL-2,> 100 µM (inactive)
same,GI50,NCI-H522,> 100 µM (inactive)
same,GI50,RXF 631,> 100 µM (inactive)
same,GI50,SF-295,> 100 µM (inactive)
same,GI50,HOP-92,> 100 µM (inactive)
same,GI50,LXFL 529,> 100 µM (inactive)
same,GI50,M14,> 100 µM (inactive)
same,GI50,OVCAR-4,> 100 µM (inactive)
same,GI50,OVCAR-5,> 100 µM (inactive)
same,GI50,CCRF-CEM,> 100 µM (inactive)
same,GI50,NCI-H460,> 100 µM (inactive)
same,GI50,COLO 205,> 100 µM (inactive)
same,GI50,786-0,> 100 µM (inactive)
same,GI50,ACHN,> 100 µM (inactive)
same,GI50,RXF 393,> 100 µM (inactive)
same,GI50,HOP-18,> 100 µM (inactive)
same,GI50,SN12C,> 100 µM (inactive)
same,GI50,OVCAR-3,> 100 µM (inactive)
same,GI50,KM-20L2,> 100 µM (inactive)
same,GI50,LOX IMVI,> 100 µM (inactive)
same,GI50,HCT-116,> 100 µM (inactive)
same,GI50,A549,> 100 µM (inactive)
same,GI50,EKVX,> 100 µM (inactive)
same,GI50,DMS-273,> 100 µM (inactive)
same,GI50,SNB-75,> 100 µM (inactive)
same,GI50,U-251,> 100 µM (inactive)
same,GI50,KM12,> 100 µM (inactive)
same,GI50,HT-29,> 100 µM (inactive)
same,GI50,OVCAR-8,> 100 µM (inactive)
same,GI50,UO-31,> 100 µM (inactive)
same,GI50,UACC-62,> 100 µM (inactive)
same,GI50,IGROV-1,> 100 µM (inactive)
same,GI50,SK-OV-3,> 100 µM (inactive)
same,GI50,NCI-H226,> 100 µM (inactive)
same,GI50,HCT-15,> 100 µM
same,GI50,HOP-62,> 100 µM (inactive)
same,GI50,M19-MEL,> 100 µM (inactive)
same,GI50,SK-MEL-5,> 100 µM (inactive)
same,GI50,SR,> 100 µM (inactive)
same,GI50,NCI-H23,> 100 µM (inactive)
same,GI50,SW-620,> 100 µM (inactive)
same,GI50,A498,> 100 µM (inactive)
same,GI50,SNB-78,> 100 µM (inactive)
same,GI50,Malme-3M,> 100 µM (inactive)
same,GI50,HCC 2998,> 100 µM (inactive)
same,GI50,SK-MEL-28,> 100 µM (inactive)
same,GI50,MOLT-4,> 100 µM (inactive)
same,GI50,SNB-19,> 100 µM (inactive)
same,GI50,CAKI-1,> 100 µM (inactive)
same,GI50,RPMI-8226,> 100 µM (inactive)
same,GI50,HL-60,> 100 µM (inactive)
same,GI50,K562,> 100 µM (inactive)
CC1(C)C(=NN=C(N)N)C(C)(C)C1=NN=C(N)N,GI50,TK-10,> 100 µM (inactive)
same,GI50,DMS-114,> 100 µM (inactive)
same,GI50,SF-539,> 100 µM (inactive)
same,GI50,DLD-1,> 100 µM (inactive)
same,GI50,SF-268,> 100 µM (inactive)
same,GI50,UACC-257,> 100 µM (inactive)
same,GI50,NCI-H522,> 100 µM (inactive)
same,GI50,RXF 631,> 100 µM (inactive)
same,GI50,XF498,> 100 µM (inactive)
same,GI50,SF-295,> 100 µM (inactive)
same,GI50,HOP-92,> 100 µM (inactive)
same,GI50,LXFL 529,> 100 µM (inactive)
same,GI50,M14,> 100 µM (inactive)
same,GI50,OVCAR-4,> 100 µM (inactive)
same,GI50,OVCAR-5,> 100 µM (inactive)
same,GI50,NCI-H460,> 100 µM (inactive)
same,GI50,COLO 205,> 100 µM (inactive)
same,GI50,786-0,> 100 µM (inactive)
same,GI50,ACHN,> 100 µM (inactive)
same,GI50,RXF 393,> 100 µM (inactive)
same,GI50,SN12C,> 100 µM (inactive)
same,GI50,OVCAR-3,> 100 µM (inactive)
same,GI50,KM-20L2,> 100 µM (inactive)
same,GI50,LOX IMVI,> 100 µM (inactive)
same,GI50,HCT-116,> 100 µM (inactive)
same,GI50,A549,> 100 µM (inactive)
same,GI50,DMS-273,> 100 µM (inactive)
same,GI50,SNB-75,> 100 µM (inactive)
same,GI50,U-251,> 100 µM (inactive)
same,GI50,KM12,> 100 µM (inactive)
same,GI50,HT-29,> 100 µM (inactive)
same,GI50,OVCAR-8,> 100 µM (inactive)
same,GI50,UO-31,> 100 µM (inactive)
same,GI50,UACC-62,> 100 µM (inactive)
same,GI50,IGROV-1,> 100 µM (inactive)
same,GI50,SK-OV-3,> 100 µM (inactive)
same,GI50,NCI-H226,> 100 µM (inactive)
same,GI50,HCT-15,> 100 µM
same,GI50,HOP-62,> 10 µM (inactive)
same,GI50,M19-MEL,> 100 µM (inactive)
same,GI50,SK-MEL-5,> 100 µM (inactive)
same,GI50,SR,> 100 µM (inactive)
same,GI50,NCI-H23,> 100 µM (inactive)
same,GI50,SW-620,> 100 µM (inactive)
same,GI50,SNB-78,> 100 µM (inactive)
same,GI50,Malme-3M,> 100 µM (inactive)
same,GI50,HCC 2998,> 100 µM (inactive)
same,GI50,SK-MEL-28,> 100 µM (inactive)
same,GI50,MOLT-4,> 100 µM (inactive)
same,GI50,SNB-19,> 100 µM (inactive)
same,GI50,CAKI-1,> 100 µM (inactive)
same,GI50,RPMI-8226,> 100 µM (inactive)
same,GI50,HL-60,> 100 µM (inactive)
same,GI50,K562,> 100 µM (inactive)
COC(=O)C12Oc3ccc(-c4ccc5c(c4O)C(=O)C4=CCC(C)C(O)C4(C(=O)OC)O5)c(O)c3C(=O)C1=CCC(C)C2O (centres undefined),GI50,TK-10,2.44 µM (inactive)
same,GI50,DMS-114,1.3 µM (inactive)
same,GI50,SF-539,2.89 µM (inactive)
same,GI50,DLD-1,0.798 µM (active)
same,GI50,SF-268,1.1 µM (active)
same,GI50,UACC-257,1.82 µM (inactive)
same,GI50,SK-MEL-2,1.41 µM (inactive)
same,GI50,NCI-H522,1.01 µM (active)
same,GI50,RXF 631,2.13 µM (inactive)
same,GI50,SF-295,2.02 µM (inactive)
same,GI50,HOP-92,1.26 µM (inactive)
same,GI50,LXFL 529,1.19 µM (inactive)
same,GI50,M14,1.63 µM (inactive)
same,GI50,OVCAR-4,2.21 µM (inactive)
same,GI50,OVCAR-5,2.13 µM (inactive)
same,GI50,CCRF-CEM,0.733 µM (active)
same,GI50,NCI-H460,1.97 µM (inactive)
same,GI50,COLO 205,1.32 µM (inactive)
same,GI50,786-0,1.53 µM (inactive)
same,GI50,ACHN,1.34 µM (inactive)
same,GI50,RXF 393,1.63 µM (inactive)
same,GI50,HOP-18,2.26 µM (inactive)
same,GI50,SN12C,1.98 µM (inactive)
same,GI50,OVCAR-3,1.36 µM (inactive)
same,GI50,KM-20L2,1.44 µM (inactive)
same,GI50,LOX IMVI,1.49 µM (inactive)
same,GI50,HCT-116,0.925 µM (active)
same,GI50,A549,1.94 µM (inactive)
same,GI50,EKVX,1.88 µM (inactive)
same,GI50,DMS-273,1.62 µM (inactive)
same,GI50,SNB-75,6.22 µM (inactive)
same,GI50,U-251,1.59 µM (inactive)
same,GI50,KM12,1.47 µM (inactive)
same,GI50,HT-29,1.51 µM (inactive)
same,GI50,OVCAR-8,0.964 µM (active)
same,GI50,UO-31,1.46 µM (inactive)
same,GI50,UACC-62,1.29 µM (inactive)
same,GI50,IGROV-1,1.62 µM (inactive)
same,GI50,SK-OV-3,1.96 µM (inactive)
same,GI50,NCI-H226,2.09 µM (inactive)
same,GI50,HCT-15,1.08 µM
same,GI50,HOP-62,2.18 µM (inactive)
same,GI50,M19-MEL,1.48 µM (inactive)
same,GI50,SK-MEL-5,1.63 µM (inactive)
same,GI50,SR,0.843 µM (active)
same,GI50,NCI-H23,1.37 µM (inactive)
same,GI50,SW-620,0.836 µM (active)
same,GI50,A498,2.19 µM (inactive)
same,GI50,SNB-78,1.95 µM (inactive)
same,GI50,Malme-3M,1.53 µM (inactive)
same,GI50,HCC 2998,1.31 µM (inactive)
same,GI50,SK-MEL-28,1.67 µM (inactive)
same,GI50,MOLT-4,5.66 µM (inactive)
same,GI50,SNB-19,2.34 µM (inactive)
same,GI50,CAKI-1,2.07 µM (inactive)
same,GI50,RPMI-8226,0.897 µM (active)
same,GI50,HL-60,0.935 µM (active)
same,GI50,K562,3.77 µM (inactive)
